From patent US7643943B2, “Methods for monitoring drug activities in vivo” (Wyeth LLC, priority 2003, dated 2010)

[1] = CCI-779 final population model, whole blood, RCC patients
[2] = CCI-779 model, 1,000 bootstrap sample runs
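Further: population pharmacokinetic analysis in NONMEM of pooled full and sparse blood sampling from patients, exponential error on kinetic parameters, proportional residual error, bootstrap check over 1,000 resamples.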

Experimental: In a randomized, double-blind, multicenter trial, once-weekly intravenous doses of 25-, 75-, or 250-mg of CCI-779 were administered to patients with advanced renal cancer that were either previously treated, or untreated and not appropriate candidates for high dose interlukin-2 therapy. Whole blood for CCI-779 and metabolite concentrations was drawn for population pharmacokinetic analysis, and Bayesian-predicted area under the concentration-time curves for parent drug (AUC), parent plus metabolite (AUCsum), and cumulative AUC and AUCsum were derived.
For CCI-779 clearance, factors for dose, attenuation of exposure with multiple-dose, and effect of body surface area were included.
The following examples were based on a randomized, double-blind, multicenter, outpatient phase 2 study of CCI-779 administered by 30 minute intravenous infusion (via an automatic dispensing pump) in patients with advanced RCC. Eligible patients were randomly assigned to treatment in a 1:1:1 ratio to receive 25 mg, 75 mg, or 250 mg of CCI-779 weekly until evidence of disease progression.
Full pharmacokinetic profiling was planned in a subset of patients, with remaining patients to provide sparse sampling.
The bioanalytical method for CCI-779 was performed using whole blood in a liquid chromatography/tandem mass spectrometry (LC/MS/MS) procedure with deuterated internal standard.
In order to characterize the pharmacokinetic profiles of patients providing sparse blood sampling, fully and sparsely sampled patient data were analyzed collectively using a population pharmacokinetic method and the NONMEM application (version 1.0, Revision 5.0 on Windows NT 4.0 computer with Pentium processor, NONMEM Project Group, University of California at San Francisco, Calif.). […] Data were therefore modeled separately and segregated by analyte into two separate data sets with dose, time/duration of administration, and demographic information. […] Construction of the NONMEM infile was performed using SAS (version 8.1) on a Sun Microsystems mainframe computer with Sun OS 5.8. […] In both cases, the model-derived value for AUC for a given patient and analyte were obtained from the quotient of CCI-779 Dose/Clearance (CL), in which CL was obtained from Bayesian estimation and the POSTHOC option of NONMEM.
During model building, an exponential error model was applied to the kinetic model.

Inter-Patient Variability % on CL (CCI-779 final population model): 23.7%
Inter-Patient Variability % on V2 (CCI-779 final population model): 44.1%
Inter-Patient Variability % on V3 (CCI-779 final population model): 129%
Intersubject variability on CL (ω^21), final model parameter estimate (CCI-779 final population model): 0.056
Intersubject variability on V2 (ω^22), final model parameter estimate (CCI-779 final population model): 0.194
Intersubject variability on V3 (ω^23), final model parameter estimate (CCI-779 final population model): 1.67
Proportional error (ε^2), final model parameter estimate (CCI-779 final population model): 0.157
V1 (θ2), parameter estimate [1]: 37.6 L
V2 (θ4), parameter estimate [1]: 271 L
V3 (θ6), parameter estimate [1]: 323 L
Q2 (θ3), parameter estimate (CCI-779 final population model, TVQ2=6.48*DOSE^0.551): 6.48 L/h
Q3 (θ5), parameter estimate (CCI-779 final population model, TVQ3=0.258*DOSE^0.551): 0.258 L/h
INTR, inter-period variability on CL (θ8), parameter estimate (CCI-779 final population model, factor for multiple doses (DNUM=1)): 0.103
Inter-period variability on CL (θ8), bootstrap sample median [2]: 0.110
Intersubject variability on CL (ω^21), bootstrap sample median [2]: 0.215
Intersubject variability on V2 (ω^22), bootstrap sample median [2]: 0.414
Intersubject variability on V3 (ω^23), bootstrap sample median [2]: 1.08
Proportional error (ε^2), bootstrap sample median [2]: 0.383
Q2 (θ3), bootstrap sample median [2]: 6.46 L/h
Q3 (θ5), bootstrap sample median [2]: 0.267 L/h
V1 (θ2), bootstrap sample median [2]: 38.3 L
V2 (θ4), bootstrap sample median [2]: 275 L
V3 (θ6), bootstrap sample median [2]: 339 L
increase of clearance with BSA (for a given dose, patients with BSA values that range from 1.5 to 2 m^2): approximately 45%
SMILES: CO[C@H]1C[C@@H]2CC[C@@H](C)[C@@](O)(O2)C(=O)C(=O)N2CCCC[C@H]2C(=O)O[C@H]([C@H](C)C[C@@H]2CC[C@@H](OC(=O)C(C)(CO)CO)[C@H](OC)C2)CC(=O)[C@H](C)/C=C(\C)[C@@H](O)[C@@H](OC)C(=O)[C@H](C)C[C@H](C)/C=C/C=C/C=C/1C [CCI-779]
